Values quoted from earlier work in patent US20050142225A1, “Stabilised pharmaceutical compositions on the basis of polyoxyethlated castor oil and method for manufacturing the same” (Pliva-Lachema A.S., priority 2003, published 2005).
Like-named read-outs stand apart in the source and are kept apart here.

## CC(=O)O[C@H]1C(=O)[C@@]2(C)[C@H]([C@H](OC(=O)c3ccccc3)[C@]3(O)C[C@H](OC(=O)[C@H](O)[C@@H](NC(=O)c4ccccc4)c4ccccc4)C(C)=C1C3(C)C)[C@]1(OC(C)=O)CO[C@@H]1C[C@@H]2O [taxol, paclitaxel]
Composition with Cremophor EL, without an acid (pH of 9.1), after 7 days at 40° C.
  content of taxol: 86,7%
Composition with pH adjusted by acetic acid to 6.7, after 7 days
  content of taxol: 97,5%
Composition with pH adjusted by citric acid to 6.2, after 7 days
  content of taxol: 96,6%
